Legend:
[1] = Highest frequency of moderate liver toxicity observed during clinical trials, expressed as a percentage. [column '% BIOL' in source]; details: human
[2] = Highest frequency of acute liver toxicity observed during clinical trials, expressed as a percentage. [column '% AIGUE' in source]; details: human
[3] = Times to onset, minimal and maximal, observed in the indexed observations. [column 'DELAI' in source]; details: human
[4] = human, serum
[5] = human, serum; remark: listed apart in the source
[6] = human
[7] = human; remark: listed apart in the source
[8] = human; remark: listed apart in the source
[9] = human, serum, 4383 h
[10] = human; remark: listed apart in the source
[11] = human; remark: listed apart in the source
[12] = human; remark: listed apart in the source
[13] = human; remark: listed apart in the source
[14] = human; remark: listed apart in the source
[15] = human; remark: listed apart in the source
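Wherever Hepatotoxicity (association with vascular disease) is given: count of indexed literature references reporting vascular liver injury in humans, e.g. peliosis hepatitis, hepatic veno-occlusive disease or Budd-Chiari syndrome.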
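Wherever Hepatotoxicity (benign tumour) is given: value is a count of indexed literature references citing a benign tumour confirmed by histopathology.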
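Wherever Hepatotoxicity (choleostasis) is given: human cholestatic liver injury, shown by histopathology or by peak ALT or AST elevation over alkaline phosphatase ratio below 2, value counts indexed literature reports.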
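Wherever Hepatotoxicity (chronic liver disease) is given: chronic liver injury confirmed by histopathology or persistently raised serum aminotransferase activity beyond 6 months, value given as the count of indexed literature references.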
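Wherever Hepatotoxicity (cirrhosis) is given: value is a count of indexed literature references reporting cirrhosis confirmed by histopathology.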
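Wherever Hepatotoxicity (cytolytic) is given: human cytolytic liver injury, shown by histopathology or by a ratio above 5 of peak ALT or AST elevation to alkaline phosphatase elevation, value counts indexed references.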
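Wherever Hepatotoxicity (granulomatous hepatitis) is given: value is a count of indexed literature references reporting granulomatous liver disease confirmed by histopathology.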
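Wherever Hepatotoxicity (malignant tumour) is given: malignant tumour confirmed by histopathology, value gives the count of indexed literature references reporting it.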
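Wherever Hepatotoxicity (severe hepatitis) is given: human clinical data: severe hepatitis, meaning potentially life-threatening liver failure or clinically observed cases, the value counts how many indexed literature references report it.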
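Wherever Hepatotoxicity (steatosis) is given: steatosis confirmed by histopathology, value is the count of indexed references.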

Structure (SMILES)	Hepatotoxicity (moderate) [1]	Hepatotoxicity (acute) [2]	Hepatotoxicity (time to onset) [3]	Hepatotoxicity (moderate) [4]	Hepatotoxicity (acute) [5]	Hepatotoxicity (cytolytic) [6]	Hepatotoxicity (choleostasis) [7]	Hepatotoxicity (severe hepatitis) [8]	Hepatotoxicity (chronic liver disease) [9]	Hepatotoxicity (cirrhosis) [10]	Hepatotoxicity (granulomatous hepatitis) [11]	Hepatotoxicity (association with vascular disease) [12]	Hepatotoxicity (steatosis) [13]	Hepatotoxicity (malignant tumour) [14]	Hepatotoxicity (benign tumour) [15]
CC(=O)Nc1ccc(/C=N/NC(N)=S)cc1 [AMITHIOZONE]	18%	2.5%	1.5 months - 6 months	4	6	5	2	2	0	1	0	0	2	0	0
CN(c1nccc(=O)[nH]1)C1CCN(c2nc3ccccc3n2Cc2ccc(F)cc2)CC1 [MIZOLASTINE]	0%	0%	2 months	0	2	2	0	0	0	0	0	0	0	0	0
CC(COc1ccccc1)NN (centres undefined) [PHENOXYPROPAZINE]	0%	0%	1.5 months - 4 months	0	3	3	0	3	0	0	0	0	0	0	0
C=CC1=C(C(=O)O)N2C(=O)[C@@H](NC(=O)/C(=N\OCC(=O)O)c3csc(N)n3)[C@H]2SC1 [CEFIXIME]	33.3%	0%	2 days	37	1	0	1	0	0	0	0	0	0	0	0
COCCOC(=O)C1=C(C)NC(C)=C(C(=O)OC(C)C)C1c1cccc([N+](=O)[O-])c1 (centres undefined) [NIMODIPINE]	2.7%	0.7%	6 months	5	3	1	0	0	0	0	0	0	0	0	0
CCN(CC)C(=O)/C(C#N)=C/c1cc(O)c(O)c([N+](=O)[O-])c1 [ENTACAPONE]	0%	0%	2 weeks - 6 weeks	1	2	0	2	0	0	0	0	0	0	0	0
COc1cc2nc(N(C)CCCNC(=O)C3CCCO3)nc(N)c2cc1OC (centres undefined) [ALFUZOSIN]	0%	0%	9 months	0	1	1	0	0	0	0	0	0	0	0	0
COc1cc2c(cc1OC)C(=O)C(CC1CCN(Cc3ccccc3)CC1)C2 (centres undefined) [DONEPEZIL]	0%	0%	10 days - 12 days	0	2	0	2	0	0	0	0		0	0	0
